Laboratory results from PubChem BioAssay AID2060903 (Molecular Pharmacology Branch, DTP, NCI, 2025).

Test system: 377384-186-R-J1-PDC complex spheroid viability
Test: Anticancer human tumor 377384-186-R-J1-PDC patient-derived pancreatic carcinoma cell line growth inhibition [RAS]
Conditions: for IC50: curve of first compound; for viability, T/C: stronger effect = lower value
In short: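 Tumour cells grown as complex spheroids with HUVEC endothelial cells and mesenchymal stem cells, treated with RAS pathway inhibitor combinations. Each agent spans half-log steps from near clinical Cmax, or 10 microM where Cmax is unknown.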
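Note: spheroids exposed to compounds for seven days before readout.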

Compound: C=CC(=O)N1CCN(c2nc(OCC3CCCN3C)nc3c(F)c(-c4nc(N)cc(C)c4C(F)(F)F)c(Cl)cc23)C(C)C1 (centres undefined) + C#Cc1c(F)ccc2cc(O)cc(-c3ncc4c(N5CC6CCC(C5)N6)nc(OCC56CCCN5CC(F)C6)nc4c3F)c12
- IC50 (second compound 0.0316 µM): < 3.16 nM
- IC50 (second compound 0.1 µM): < 3.16 nM
- IC50 (second compound 0.316 µM): < 3.16 nM
- IC50 (second compound 1 µM): < 3.16 nM
- IC50 (second compound 3.16 µM): < 3.16 nM
- IC50 (second compound 10 µM): < 3.16 nM
- viability, T/C (second compound 0.0316 µM, first compound 0.00316 µM): 24.6%
- viability, T/C (second compound 0.0316 µM, first compound 0.01 µM): 16.6%
- viability, T/C (second compound 0.0316 µM, first compound 0.0316 µM): 20.2%
- viability, T/C (second compound 0.0316 µM, first compound 0.1 µM): 20.3%
- viability, T/C (second compound 0.0316 µM, first compound 0.316 µM): 10.2%
- viability, T/C (second compound 0.0316 µM, first compound 1 µM): 9.03%
- viability, T/C (second compound 0.1 µM, first compound 0.00316 µM): 14.6%
- viability, T/C (second compound 0.1 µM, first compound 0.01 µM): 9.29%
- viability, T/C (second compound 0.1 µM, first compound 0.0316 µM): 10.7%
- viability, T/C (second compound 0.1 µM, first compound 0.1 µM): 9.27%
- viability, T/C (second compound 0.1 µM, first compound 0.316 µM): 5.71%
- viability, T/C (second compound 0.1 µM, first compound 1 µM): 5.75%
- viability, T/C (second compound 0.316 µM, first compound 0.00316 µM): 5.54%
- viability, T/C (second compound 0.316 µM, first compound 0.01 µM): 5.26%
- viability, T/C (second compound 0.316 µM, first compound 0.0316 µM): 4.78%
- viability, T/C (second compound 0.316 µM, first compound 0.1 µM): 5.36%
- viability, T/C (second compound 0.316 µM, first compound 0.316 µM): 4.48%
- viability, T/C (second compound 0.316 µM, first compound 1 µM): 2.79%
- viability, T/C (second compound 1 µM, first compound 0.00316 µM): 3.22%
- viability, T/C (second compound 1 µM, first compound 0.01 µM): 2.82%
- viability, T/C (second compound 1 µM, first compound 0.0316 µM): 3.82%
- viability, T/C (second compound 1 µM, first compound 0.1 µM): 3.54%
- viability, T/C (second compound 1 µM, first compound 0.316 µM): 3.08%
- viability, T/C (second compound 1 µM, first compound 1 µM): 3.36%
- viability, T/C (second compound 3.16 µM, first compound 0.00316 µM): 1.84%
- viability, T/C (second compound 3.16 µM, first compound 0.01 µM): 2.35%
- viability, T/C (second compound 3.16 µM, first compound 0.0316 µM): 2.16%
- viability, T/C (second compound 3.16 µM, first compound 0.1 µM): 1.87%
- viability, T/C (second compound 3.16 µM, first compound 0.316 µM): 2.05%
- viability, T/C (second compound 3.16 µM, first compound 1 µM): 2.48%
- viability, T/C (second compound 10 µM, first compound 0.00316 µM): 1.31%
- viability, T/C (second compound 10 µM, first compound 0.01 µM): 1.46%
- viability, T/C (second compound 10 µM, first compound 0.0316 µM): 0.83%
- viability, T/C (second compound 10 µM, first compound 0.1 µM): 1.21%
- viability, T/C (second compound 10 µM, first compound 0.316 µM): 1.13%
- viability, T/C (second compound 10 µM, first compound 1 µM): 0.62%

Compound: CC1(C)CCC(Nc2ncc(C(F)(F)F)c(-c3c[nH]c4c(P(C)(C)=O)c(C#N)ccc34)n2)CN1 (centres undefined) + C#Cc1c(F)ccc2cc(O)cc(-c3ncc4c(N5CC6CCC(C5)N6)nc(OCC56CCCN5CC(F)C6)nc4c3F)c12
- IC50 (second compound 0.0316 µM): < 0.949 nM
- IC50 (second compound 0.1 µM): < 0.949 nM
- IC50 (second compound 0.316 µM): < 0.949 nM
- IC50 (second compound 1 µM): < 0.949 nM
- IC50 (second compound 3.16 µM): < 0.949 nM
- IC50 (second compound 10 µM): < 0.949 nM
- viability, T/C (second compound 0.0316 µM, first compound 0.000949 µM): 22.5%
- viability, T/C (second compound 0.0316 µM, first compound 0.003 µM): 20.6%
- viability, T/C (second compound 0.0316 µM, first compound 0.00949 µM): 14.8%
- viability, T/C (second compound 0.0316 µM, first compound 0.03 µM): 14.3%
- viability, T/C (second compound 0.0316 µM, first compound 0.0949 µM): 11.5%
- viability, T/C (second compound 0.0316 µM, first compound 0.3 µM): 10.4%
- viability, T/C (second compound 0.1 µM, first compound 0.000949 µM): 12.3%
- viability, T/C (second compound 0.1 µM, first compound 0.003 µM): 8.6%
- viability, T/C (second compound 0.1 µM, first compound 0.00949 µM): 7.96%
- viability, T/C (second compound 0.1 µM, first compound 0.03 µM): 7.41%
- viability, T/C (second compound 0.1 µM, first compound 0.0949 µM): 7.16%
- viability, T/C (second compound 0.1 µM, first compound 0.3 µM): 6.43%
- viability, T/C (second compound 0.316 µM, first compound 0.000949 µM): 4.28%
- viability, T/C (second compound 0.316 µM, first compound 0.003 µM): 5.25%
- viability, T/C (second compound 0.316 µM, first compound 0.00949 µM): 2.68%
- viability, T/C (second compound 0.316 µM, first compound 0.03 µM): 4.16%
- viability, T/C (second compound 0.316 µM, first compound 0.0949 µM): 3.74%
- viability, T/C (second compound 0.316 µM, first compound 0.3 µM): 2.89%
- viability, T/C (second compound 1 µM, first compound 0.000949 µM): 4.34%
- viability, T/C (second compound 1 µM, first compound 0.003 µM): 2.56%
- viability, T/C (second compound 1 µM, first compound 0.00949 µM): 2.74%
- viability, T/C (second compound 1 µM, first compound 0.03 µM): 3.25%
- viability, T/C (second compound 1 µM, first compound 0.0949 µM): 2.68%
- viability, T/C (second compound 1 µM, first compound 0.3 µM): 2.91%
- viability, T/C (second compound 3.16 µM, first compound 0.000949 µM): 2.73%
- viability, T/C (second compound 3.16 µM, first compound 0.003 µM): 2.34%
- viability, T/C (second compound 3.16 µM, first compound 0.00949 µM): 1.84%
- viability, T/C (second compound 3.16 µM, first compound 0.03 µM): 2.23%
- viability, T/C (second compound 3.16 µM, first compound 0.0949 µM): 2.14%
- viability, T/C (second compound 3.16 µM, first compound 0.3 µM): 2.47%
- viability, T/C (second compound 10 µM, first compound 0.000949 µM): 1.18%
- viability, T/C (second compound 10 µM, first compound 0.003 µM): 1.24%
- viability, T/C (second compound 10 µM, first compound 0.00949 µM): 1.33%
- viability, T/C (second compound 10 µM, first compound 0.03 µM): 1.3%
- viability, T/C (second compound 10 µM, first compound 0.0949 µM): 0.94%
- viability, T/C (second compound 10 µM, first compound 0.3 µM): 0.79%
